Data published in patent US4835163A, “N-alkoxyalkyl derivatives of quinolone carboxamides” (Sanofi, priority 1986, dated 1989).

Legend:
[1] = locomotive activity, photoelectric cell actimeter; assay type: in vivo, mice (male CD1); conditions: 32 mg/kg O.R.; untreated mice 553 ± 200; P <0.05 (Student test)
Description: The mice (male CD1 20-25 g) are placed in groups of three in the cages of a photoelectric cell actimeter. After 30 minutes of getting used to the enclosure, the animas are treated by oral route with the product under test in suspension in carboxymethylcellulose at 1%. A control set of untreated mice receive only the vehicle. Each set contains 12 groups of 3 mice. The movement activity responses are recorded for 80 minutes.

[2] = antagonist activity vis a vis the hypnotic effects of benzodiazepines; conditions: 25 mg/kg i.p., 15 minutes before diazepam 6 mg/kg i.p.; control 97 ± 12; * P < 0.05 vs control
[3] = anticonvulsive activity, test with pentetrazol; assay type: in vivo, mice (male CD1); conditions: Mus musculus, 0.5 h; oral route, 30 minutes before pentetrazol 135 mg/kg s.c.; dose which avoids attacks in half of the animals; read-out: DE50 (the source's name)
Description: This activity has been studied by the test with pentetrazol, according to the method of EVERETT and RICHARDS (J. Pharm. Exp. Ther. 1944, 81, 402-407).
Thus the DE50 is determined, which is the dose which avoids the appearance of attacks in half of the animals. The DE 50 has been calculated by the method of D. K. Finney (Probit analysis; University Press; Cambridge; 1971).

[4] = acute oral toxicity (LD 50); conditions: mouse, in vivo, mice
From the text: The components of the invention benefit from a good tolerance and a weak toxicity. […] 1, in mice.

SMILES	Movement Activity for 80 min [1]	Length of sleep [2]	ED50 [3]	LD50 [4]
CCCNC(=O)c1cn(COC)c2ccccc2c1=O [derivative no. 1, 1-methoxymethyl-4-oxo-1,4-dihydro-quinoline 3-(N-propyl)carboxamide]	1842 ± 470	39 ± 20 min	55 mg/kg	1100 mg/kg
CCNC(=O)c1cn(COC)c2ccccc2c1=O [derivative no. 3, 1-methoxymethyl-4-oxo-1,4-dihydro-quinoline 3-(N-ethyl)carboxamide]	–	9 ± 4 min	–	–
COCn1cc(C(=O)NCC(C)C)c(=O)c2ccccc21 [derivative no. 5, 1-methoxymethyl-4-oxo-1,4-dihydro-quinoline 3-(N-isobutyl)carboxamide]	–	62 ± 10 min	46 mg/kg	–
COCn1cc(C(=O)NC2CC2)c(=O)c2ccccc21 [derivative no. 7, 1-methoxymethyl-4-oxo-1,4-dihydro-quinoline 3-(N-cyclopropyl)carboxamide]	–	32 ± 11 min	67 mg/kg	–
COCn1cc(C(=O)NC2CCCC2)c(=O)c2ccccc21 [derivative no. 8, 1-methoxymethyl-4-oxo-1,4-dihydro-quinoline 3-(N-cyclopentyl)carboxamide]	–	–	108 mg/kg	–
CCCNC(=O)c1cn(COC)c2ccc(F)cc2c1=O [derivative no. 9, 1-methoxymethyl-4-oxo-6-fluoro-1,4-dihydro-quinoline 3-(N-propyl)carboxamide]	–	22 ± 8 min	62 mg/kg	–
CCCNC(=O)c1cn(COC)c2c(F)cccc2c1=O [derivative no. 10, 1-methoxymethyl-4-oxo-8-fluoro-1,4-dihydro-quinoline 3-(N-propyl)carboxamide]	–	–	53 mg/kg	–
CCCNC(=O)c1cn(COC)c2c(Cl)cccc2c1=O [derivative no. 11, 1-methoxymethyl-4-oxo-8-chloro-1,4-dihydro-quinoline 3-(N-propyl)carboxamide]	–	–	21 mg/kg	–
CCCNC(=O)c1cn(COC)c2ccc(OC)cc2c1=O [derivative no. 12, 1-methoxymethyl-4-oxo-6-methoxy-1,4-dihydro-quinoline 3-(N-propyl)carboxamide]	–	–	65 mg/kg	–
CCCNC(=O)c1cn(COCC)c2ccccc2c1=O [derivative no. 13, 1-ethoxymethyl-4-oxo-1,4-dihydro-quinoline 3-(N-propyl)carboxamide]	–	–	75 mg/kg	–
CCCNC(=O)c1cn(CCOCC)c2ccccc2c1=O [derivative no. 14, 1-ethoxyethyl-4-oxo-1,4-dihydro-quinoline 3-(N-propyl)carboxamide]	–	–	79 mg/kg	–
CCCNC(=O)c1cn(CCOC)c2ccccc2c1=O [derivative no. 15, 1-methoxyethyl-4-oxo-1,4-dihydro-quinoline 3-(N-propyl)carboxamide]	–	–	50 mg/kg	–
CCC1(c2ccccc2)C(=O)NC(=O)NC1=O [phenobarbital, reference compound]	–	–	10 mg/kg	–
CCCC(CCC)C(=O)[O-].[Na+] [sodium valproate, reference compound]	–	–	200 mg/kg	–
